Results taken from US7019139B2, “Quinolinones and uses thereof” (ARIAD Pharmaceuticals, Inc., priority 2001, dated 2006).

Experiment: Hydroxyapatite assay (hydroxyapatite adsorption chromatography, bone-targeting potential)
Format: binding
Settings: corrected K = (retention time-void time)/void on TSK-Gel HA 1000 HPLC column; linear gradient 10 mM to 500 mM sodium phosphate, 0.15 N NaCl, pH 6.8
Description: Hydroxyapatite is the principal mineral component of bone. Hydroxyapatite adsorption chromatography is used as an assay to evaluate the bone-targeting potential of both individual bone-targeting moieties (“monomers”) and of pharmaceuticals incorporating bone-targeting groups.
This K value is corrected using two reference compounds to correct from inter-column and inter-system variation to obtain a K′ value.
Reference Compounds: K′ values were determined for known bone targeted compounds, the bisphosphonate, alendronate and tetracycline.

NCCCC(O)(P(=O)(O)O)P(=O)(O)O [Alendronate, alendronate]
K′ value: 3.7
